From ChEMBL document CHEMBL1201862, “PubChem BioAssay data set” (2004)
Several values for one entry are separate records, joined by “and”; a condition that tells them apart may be missing. Equal values may be shown once. One block for each compound: values may come before it. Activity calls are given as the source filed them.

Legend:
[1] = target: T1, Short transient receptor potential channel 4 (Mus musculus, UniProt Q9QUQ5); assay: mouse TRPC4 channel inhibitors, dose response, cell-based, HEK293 TRPC4/mu-opioid, Fluo-4 calcium (AID 434942); format: functional;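 also: potency of inhibitors blocking the TRPC4 calcium response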
T1 sequence (Q9QUQ5 whole entry): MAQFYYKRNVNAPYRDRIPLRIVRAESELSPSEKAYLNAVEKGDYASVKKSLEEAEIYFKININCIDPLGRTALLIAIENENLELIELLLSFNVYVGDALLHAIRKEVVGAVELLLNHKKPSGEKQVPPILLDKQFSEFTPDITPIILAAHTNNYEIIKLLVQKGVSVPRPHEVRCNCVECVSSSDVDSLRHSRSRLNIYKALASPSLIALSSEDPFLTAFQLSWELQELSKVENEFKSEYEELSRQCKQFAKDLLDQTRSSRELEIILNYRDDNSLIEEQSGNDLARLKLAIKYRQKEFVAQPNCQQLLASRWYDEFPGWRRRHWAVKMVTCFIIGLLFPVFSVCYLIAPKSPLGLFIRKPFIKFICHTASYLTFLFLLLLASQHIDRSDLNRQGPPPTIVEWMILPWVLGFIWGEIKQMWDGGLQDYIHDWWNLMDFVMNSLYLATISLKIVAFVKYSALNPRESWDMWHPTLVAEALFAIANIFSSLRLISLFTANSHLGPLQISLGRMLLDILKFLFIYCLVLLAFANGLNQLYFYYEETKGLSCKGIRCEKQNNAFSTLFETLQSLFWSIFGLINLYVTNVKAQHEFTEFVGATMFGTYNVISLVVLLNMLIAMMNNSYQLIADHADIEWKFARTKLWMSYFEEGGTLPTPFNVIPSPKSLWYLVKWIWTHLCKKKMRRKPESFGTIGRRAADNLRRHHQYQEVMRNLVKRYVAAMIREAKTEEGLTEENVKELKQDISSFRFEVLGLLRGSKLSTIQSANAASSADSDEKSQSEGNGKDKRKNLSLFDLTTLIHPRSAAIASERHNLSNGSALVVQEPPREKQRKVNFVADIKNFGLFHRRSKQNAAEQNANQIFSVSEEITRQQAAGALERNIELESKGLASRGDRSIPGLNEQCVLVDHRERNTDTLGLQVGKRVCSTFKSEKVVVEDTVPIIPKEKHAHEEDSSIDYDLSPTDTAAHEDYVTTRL

[2] = inhibitors of PGC1a acetylation in cells, dose response, cell-based, cherry-picked samples (AID 720514); format: functional;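 also: potency may reflect raised or lowered acetylation signal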
[3] = target: Sphingosine 1-phosphate receptor 1 (Homo sapiens, UniProt P21453); assay: Late-stage counterscreen for antagonists of kappa opioid receptor 1 (OPRK1): fluorescence-based cell-based dose response assay to identify antagonists of Sphingosine 1-Phosphate Receptor 1 (S1P1).; format: functional
Sequence of Sphingosine 1-phosphate receptor 1 (P21453 whole entry): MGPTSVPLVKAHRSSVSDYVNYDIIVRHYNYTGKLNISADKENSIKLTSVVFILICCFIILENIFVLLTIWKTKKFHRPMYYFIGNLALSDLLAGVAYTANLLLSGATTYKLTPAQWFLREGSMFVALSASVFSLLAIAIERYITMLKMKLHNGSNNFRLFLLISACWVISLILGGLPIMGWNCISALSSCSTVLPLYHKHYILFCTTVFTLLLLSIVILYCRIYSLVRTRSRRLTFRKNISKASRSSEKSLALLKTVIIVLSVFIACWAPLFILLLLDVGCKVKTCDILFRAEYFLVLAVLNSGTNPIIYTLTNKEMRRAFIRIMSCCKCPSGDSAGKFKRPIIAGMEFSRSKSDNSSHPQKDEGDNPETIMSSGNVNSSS

Mu-type opioid receptor = Mu-type opioid receptor (Homo sapiens, UniProt P35372); assay: Late-stage results from the probe development effort to identify antagonists of OPRK1: luminescence-based cell-based dose response OPRM1 counterscreen, Set 2.; format: functional
Sequence of Mu-type opioid receptor (P35372 whole entry): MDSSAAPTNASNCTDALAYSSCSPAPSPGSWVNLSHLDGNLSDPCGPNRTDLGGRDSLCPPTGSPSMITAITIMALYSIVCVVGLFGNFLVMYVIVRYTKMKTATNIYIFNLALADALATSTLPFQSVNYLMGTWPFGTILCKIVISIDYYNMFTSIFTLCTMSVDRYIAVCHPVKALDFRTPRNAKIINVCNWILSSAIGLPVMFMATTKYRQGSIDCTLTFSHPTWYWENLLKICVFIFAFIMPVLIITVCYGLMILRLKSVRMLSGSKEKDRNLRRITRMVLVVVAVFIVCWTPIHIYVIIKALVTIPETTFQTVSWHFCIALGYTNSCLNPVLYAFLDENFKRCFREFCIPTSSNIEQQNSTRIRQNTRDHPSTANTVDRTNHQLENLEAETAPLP

[4] = target: Kappa-type opioid receptor (Homo sapiens, UniProt P41145); assay: Late-stage fluorescence-based cell-based dose response assay for antagonists of kappa opioid receptor 1 (OPRK1).; format: functional
Sequence of Kappa-type opioid receptor (P41145 whole entry): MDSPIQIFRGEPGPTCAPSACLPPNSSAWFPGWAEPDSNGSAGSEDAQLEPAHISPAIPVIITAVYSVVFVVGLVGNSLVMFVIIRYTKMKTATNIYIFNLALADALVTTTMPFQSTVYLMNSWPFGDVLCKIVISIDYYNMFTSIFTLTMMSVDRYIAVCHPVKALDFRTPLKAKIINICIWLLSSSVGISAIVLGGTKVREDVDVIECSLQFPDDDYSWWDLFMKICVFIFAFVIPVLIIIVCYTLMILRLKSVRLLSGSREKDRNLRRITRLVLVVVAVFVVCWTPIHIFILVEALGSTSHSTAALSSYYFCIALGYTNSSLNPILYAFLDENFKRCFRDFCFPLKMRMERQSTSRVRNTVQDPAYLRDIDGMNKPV

[5] = target: Delta-type opioid receptor (Homo sapiens, UniProt P41143); assay: Late-stage results from the probe development effort to identify antagonists of OPRK1: fluorescence-based cell-based dose response OPRD1 counterscreen, Set 2.; format: functional
Sequence of Delta-type opioid receptor (P41143 whole entry): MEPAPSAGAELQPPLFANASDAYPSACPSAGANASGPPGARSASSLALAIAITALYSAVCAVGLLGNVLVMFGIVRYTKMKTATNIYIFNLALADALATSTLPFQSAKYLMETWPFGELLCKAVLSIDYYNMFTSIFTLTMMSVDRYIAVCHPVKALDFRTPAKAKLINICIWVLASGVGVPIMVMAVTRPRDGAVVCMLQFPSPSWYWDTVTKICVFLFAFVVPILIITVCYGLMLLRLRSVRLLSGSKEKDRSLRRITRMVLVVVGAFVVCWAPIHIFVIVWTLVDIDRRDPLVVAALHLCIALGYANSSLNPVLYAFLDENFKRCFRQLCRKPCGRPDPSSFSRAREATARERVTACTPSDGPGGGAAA

cells = conditions: HEK293;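 also: cells exposed to compound for 48 hours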
HEK293 = assay: HEK293T cell cytotoxicity, dose response, cytotoxicity control, ATP luminescence, cherry-pick samples (AID 687005); format: functional, cell-based; conditions: Homo sapiens;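 also: cells exposed to compound for 48 hours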
[6] = HEK293 Cytotoxicity Assay Measured in Cell-Based System Using Plate Reader - 7071-01_Inhibitor_Dose_CherryPick_Activity_Set2.; format: functional
HeLa = assay: HeLa cell cytotoxicity, dose response, cytotoxicity control, ATP luminescence, cherry-pick samples (AID 687004); format: functional, cell-based; conditions: Homo sapiens
[7] = HIV Env cell-cell fusion inhibitors, dose response, HIV entry, plate reader, dry powder (AID 687023); format: functional, cell-based
[8] = CEM21 cell cytotoxicity, dose response, cytotoxicity control, plate reader, dry powder (AID 687026); format: functional, cell-based

SMILES: CCOC(=O)C1(Cc2cccc(F)c2)CCN(Cc2c(C)nn(CC)c2C)CC1
EC50 [1]: 1.06 µM (active) | AC50 [2]: 28.8 µM (active)

IC50 [3]: > 50 µM (inactive) | IC50 (Mu-type opioid receptor): > 50 µM (inactive) | IC50 [4]: 2.2 µM (active) | IC50 [5]: > 50 µM (inactive)
SMILES: COc1cc([N+](=O)[O-])c(OC)cc1SCc1nnc(S)n1-c1ccc(C)cc1

SMILES: Cc1c(C(=O)NCc2ccc(Cl)c(Cl)c2)sc(=O)n1Cc1cccc(F)c1
AC50 (cells): > 52 µM (inactive)

SMILES: Cc1cccc(-c2ccc([C@@H]3[C@H]4CN(C(=O)c5ccc6c(c5)OCO6)CCCCN4[C@H]3CO)cc2)c1
AC50 (HEK293): 8.23 µM (active) | AC50 [6]: 8.23 µM (active) | AC50 (HeLa): 20.2 µM (active)

SMILES: O=S(=O)(NCc1ccncc1)c1ccc2c(c1)OCCO2
AC50 [7]: 125 nM (active) and 167 nM (active) | AC50 [8]: > 70 µM (inactive)
